{"source": "patent US20110076283A1", "about": "“METHOD FOR PREDICTING AND DIAGNOSING BRAIN TUMOR” (Universite De Lausanne, priority 2008, published 2011)", "key": {"glioblastoma [1]": {"test_system": "glioblastoma", "assay": "Multivariate Cox proportional hazards model of the treatment effect on survival (chemoradiotherapy versus radiotherapy alone) in glioblastoma patients", "format": "in vivo, human", "conditions": "MGMT-methylated patients, multivariate Cox model N = 68", "protocol": "Gene expression profiles were established from 80 frozen GBM samples obtained from 76 patients, comprising 70 tumors from initial surgery, and 10 samples resected at recurrence, and from four non-neoplastic brain tissue samples. All patients were treated within a phase II, or a randomized phase III trial {Stupp, 2005 #2126} and provided written informed consent for molecular studies of their tumor. The protocol was approved by the ethics committee at each center. Sixty-eight patients with complete molecular and clinical information were included in survival analysis, with a median age of 51 years (range: 26-70 yrs) at enrollment. Thereof, 42 received TMZ/RT→TMZ, while 26 were randomized to RT only. Second-line therapy frequently involved alkylating agents including TMZ. The validation set comprised 76 independent patients of the EORTC/NCIC-study (Stupp et al., 2005), 39 randomized to TMZ/RT→TMZ, and 37 to RT (median age 54 yrs, range 25-69 yrs), whose GBM were available on a tissue microarray. There was no difference in survival as compared to the general trial population, neither in the test population, nor the validation set (P>0.2).\nFor each covariate, the hazards ratio, its 95% confidence interval and the associated Wald p-value were examined The Benjamini Hochberg procedure ^s was applied as multiple testing correction method to convert p-values into estimated false discovery rates (FDR). The hazards ratio for a gene (or the mean of a cluster) were standardized by referring them to a variation corresponding to an interquartile range, in order to obtain an interpretable value, for microarray as well as for real-time PCR data. Therefore, the interpretation of an estimated hazard ratio of 1.5 is that the hazard rate increases by 50 percent for an increase of one interquartile range of the log-scale gene expression, independently of the expression level at which it is calculated.\nThe log-hazard function was defined as:\ng(t,X,TMZ,MGMT,age,β)=ln [h0(t)]+β1X+β2TMZ+β3MGMT+β4age+β5(X*TMZ)+β6(TMZ*MGMT) […]"}, "glioblastoma [2]": {"test_system": "glioblastoma", "conditions": "glioblastoma patients; in particular with epigenetically silenced MGMT gene; cited from earlier work"}, "glioblastoma [3]": {"test_system": "glioblastoma", "conditions": "in conjunction with TMZ/RT→TMZ; patients with a methylated MGMT gene promoter; cited from earlier work"}}}
{"smiles": "Cn1nnc2c(C(N)=O)ncn2c1=O", "note": "[TMZ/RT→TMZ, temozolomide]", "values": [{"measurement": "Estimated Hazard Ratios (HR) for Treatment Effect", "setting": "glioblastoma [1]; G98 expression level 1st quartile", "result": 0.13}, {"measurement": "Estimated Hazard Ratios (HR) for Treatment Effect", "setting": "glioblastoma [1]; G98 expression level 3rd quartile", "result": 0.47}, {"measurement": "Estimated Hazard Ratios (HR) for Treatment Effect", "setting": "glioblastoma [1]; G98 expression level median", "result": 0.25}, {"measurement": "survival", "setting": "glioblastoma [2]", "result": "significantly prolong survival"}]}
{"smiles": "CC(C)[C@H]1C(=O)N[C@@H](CCCN=C(N)N)C(=O)NCC(=O)N[C@@H](CC(=O)O)C(=O)N[C@H](Cc2ccccc2)C(=O)N1C", "note": "[cilengitide]", "values": [{"measurement": "anti-tumor activity", "setting": "glioblastoma [3]", "result": "increased anti-tumor activity"}]}
